Data published in publication PMC8199001, “Design, Synthesis, and Biological Evaluation of Novel 6H-Benzo[c]chromen-6-one Derivatives as Potential Phosphodiesterase II Inhibitors” (International Journal of Molecular Sciences, 2021).
Entries after “also recorded” stand apart in the source; their conditions may differ.

Experiments:
[1] = molecular target: PDE2 (Homo sapiens, UniProt O00408); assay: In vitro PDE2 enzymatic inhibition assay (Bio-cAMP substrate, AlphaScreen detection); type: biochemical;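 note: enzyme reaction run 0.5 h, then anti-cAMP acceptor and streptavidin donor beads added for 1 h in the dark before plate reading, compounds serially diluted from DMSO stock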
Procedure: Preparation of 1*Rection Buffer: we took 1 mL 10*Rection Buffer, added 9 mL ultra-pure water to swirl and mix well, and put it on ice; preparation of PDE2 solution: 210 μL of 1*Rection Buffer were added into a centrifuge tube, then 30 μL PDE2 were added, mixed well, equal to 8-times dilution, and placed on ice; preparation of compound solution with gradient concentration: DMSO was used as the solvent to prepare 10 mM compound solution, and then diluted with 1*Rection Buffer.
We took 2 μL of the diluted compound solution of each concentration into the microplate, added 4 μL PDE2 solution, numbered them A1–A9, added 2 μL 1*Rection Buffer and 4 μL PDE2 into A10, added 2 μL compound solution and 4 μL 1*Rection Buffer to A11, added 6 μL 1*Rection Buffer to A13, and ensured the three groups are parallel to each other. […] The reaction time was 0.5 h in the microporous plate thermostatic oscillator.
Anti-Camp Alohascreen Acceptor and Streptavidin Coated Donor Bead were purchased from Perkin Elmer Company according to response volume: 1* Immunoassay Buffer 549.32 μL and 3.70 μL anti-cAMP AlohaScreen Acceptor were collected under dark conditions. We took 1.98 μL Streptavidin coated Donor Bead, mixed well, added 15 μL mixture to each well after 1 h reaction, and reacted it in the dark for 1 h. After the reaction, we tested it with multilabel microplate detector.

[2] = test system: HT-22 cells; assay: Protection of HT-22 cells against corticosterone-induced neurotoxicity (cell viability); type: cell-based
Text: Corticosterone can induce PDE2A, PDE3B, PDE4A, PDE4D, PDE10, and PDE11 expression in HT-22 cells, which results in significant cell lesion. Thus, corticosterone-induced HT-22 neurotoxicity was generally employed as classical cell model to screen PDE-inhibitors for curing neurodegenerative disease, such as AD and PD.
To determine whether compound 1f could promote neuron proliferation and protect HT-22 cells against corticosterone-induced neurotoxicity by PDE2 inhibition, the viability of HT-22 cells was measured in the presence of 100 μM corticosterone (positive control), corticosterone absence (control), and different concentrations of 1f.
We added 943 µL of DMSO solution to 8.2 mg of dexamethasone acetate to obtain a 20 mM stock solution, froze it at −20 °C, and diluted it to 2 mM with serum-containing medium before use. The test compound was dissolved in DMSO to obtain a 20 mM stock solution and stored at −20 °C. Diluted with serum-containing medium to a concentration of 2 × 100, 2 × 50, 2 × 25, 2 × 12.5, 2 × 6.25, 2 × 3.125 μM before use.
After resuscitation, HT-22 cells were cultured in DMEM medium (containing 10% FBS) at 37 °C with 5% CO2. After the cells grew to more than 80% cell fusion, we passaged and seeded the plate, and the density of each well should be 10,000 cells/100 μL/well and cultured for 24 h. After the cells adhered to the wall, drug intervention was given.
10 µL solution of 2 mM dexamethasone acetate was cultured at 37 °C for 30 min. 100 µL drug solution of 2 × 100, 2 × 50, 2 × 25, 2 × 12.5, 2 × 6.25, and 2 × 3.125 μM were added to make the final concentration of dexamethasone acetate 100 μM, and the final concentrations of the drug were 100, 50, 25, 12.5, 6.25, 3.125 μM. After preparation, it took another 24 h to continue the culture. […]
After the incubation, 50 µL of MTT was added to each well, and it needed another 4 h to incubate. […] Finally, the wavelength A 490 was measured. The data were expressed as mean ± sd (n = 5), and one-way anova analysis of variance was used for data statistics; p < 0.05 is defined as a significant difference.

PDE2, sequence (O00408 whole entry): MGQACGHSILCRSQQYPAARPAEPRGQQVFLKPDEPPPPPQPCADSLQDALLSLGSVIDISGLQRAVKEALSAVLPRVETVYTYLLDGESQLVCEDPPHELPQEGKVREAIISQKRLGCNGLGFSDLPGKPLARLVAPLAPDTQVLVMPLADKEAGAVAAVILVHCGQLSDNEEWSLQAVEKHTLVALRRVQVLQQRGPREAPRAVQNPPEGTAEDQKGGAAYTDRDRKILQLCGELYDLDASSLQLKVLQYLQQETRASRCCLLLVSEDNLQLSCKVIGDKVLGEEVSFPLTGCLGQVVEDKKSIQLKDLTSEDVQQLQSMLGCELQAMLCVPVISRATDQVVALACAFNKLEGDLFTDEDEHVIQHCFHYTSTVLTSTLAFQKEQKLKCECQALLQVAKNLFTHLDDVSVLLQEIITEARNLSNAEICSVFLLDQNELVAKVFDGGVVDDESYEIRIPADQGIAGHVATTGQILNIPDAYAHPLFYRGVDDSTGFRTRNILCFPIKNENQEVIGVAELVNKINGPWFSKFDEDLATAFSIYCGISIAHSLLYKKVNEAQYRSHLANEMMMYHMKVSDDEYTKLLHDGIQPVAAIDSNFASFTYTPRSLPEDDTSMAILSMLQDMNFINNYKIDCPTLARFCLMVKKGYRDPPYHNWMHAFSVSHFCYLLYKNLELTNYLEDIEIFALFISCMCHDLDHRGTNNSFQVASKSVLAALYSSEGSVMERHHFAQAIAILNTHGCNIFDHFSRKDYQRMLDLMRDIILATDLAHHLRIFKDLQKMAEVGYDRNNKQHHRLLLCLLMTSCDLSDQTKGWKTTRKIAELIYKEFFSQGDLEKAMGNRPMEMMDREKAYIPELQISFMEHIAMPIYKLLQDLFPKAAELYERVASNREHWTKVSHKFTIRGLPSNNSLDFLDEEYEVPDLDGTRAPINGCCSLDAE

CCCCOc1ccc2c(c1)oc(=O)c1ccccc12 [Compound 1f, 3-butoxy-6H-benzo[c]chromen-6-one]
PDE2 inhibitory activity (result in words) ([1]; enzyme level): good PDE2 inhibitory activity
IC50 ([1]; in vitro, Bio-cAMP as substrate, mean of at least three experiments): 3.67 ± 0.47 µM
Cell viability of HT-22 cells exposed to corticosterone (result in words) ([2]; 100 μM corticosterone, compound 6.25~25 μM, 24 h, dose-dependent): protected cells against corticosterone (CORT)-induced cytotoxicity in a concentration-dependent manner; also recorded: significantly increased cell viability; also recorded: protect HT-22 cells from corticosterone-induced death
Best concentration for increasing HT-22 cell viability ([2]; 100 μM corticosterone, p < 0.01): 12.5 µM
Protective effect on HT-22 cells compared with BAY 60-7550 ([2]; comparison with BAY 60-7550 at 1.0 μM): similar; also recorded: comparable activity
melting point: 53.6 to 55.5 °C
